Data published in publication PMC6822569 (Journal of medicinal chemistry, 2019).
Like-named read-outs stand apart in the source and are kept apart here. One block for each compound: values may come before it.

Assays:
[1] = system: P. falciparum Dd2; assay: microbe, parasite or virus in culture; type: cell-based
[2] = system: P. falciparum Tm90-C2B; assay: In vitro blood stage antimalarial activity, MSF assay, strain Tm90-C2B; type: cell-based; conditions: read-out: blood stage IC50 vs P. falciparum Tm90-C2B; Tm90-C2B: Atovaquone resistant clinical isolate
[3] = system: HepG2; assay: HepG2 cytotoxicity assay; type: cell-based, human
[4] = system: P. yoelii; assay: In vivo blood stage efficacy, modified 4-day test in murine P. yoelii model; conditions: after 80 mg/kg × 4 days oral dosing
[5] = molecular target: hERG (human-ether-a-go-go-related gene) potassium channel (Homo sapiens, UniProt Q12809); assay: hERG potassium channel current, automatic parallel patch clamp; type: cell-based
hERG (human-ether-a-go-go-related gene) potassium channel, sequence (Q12809 whole entry): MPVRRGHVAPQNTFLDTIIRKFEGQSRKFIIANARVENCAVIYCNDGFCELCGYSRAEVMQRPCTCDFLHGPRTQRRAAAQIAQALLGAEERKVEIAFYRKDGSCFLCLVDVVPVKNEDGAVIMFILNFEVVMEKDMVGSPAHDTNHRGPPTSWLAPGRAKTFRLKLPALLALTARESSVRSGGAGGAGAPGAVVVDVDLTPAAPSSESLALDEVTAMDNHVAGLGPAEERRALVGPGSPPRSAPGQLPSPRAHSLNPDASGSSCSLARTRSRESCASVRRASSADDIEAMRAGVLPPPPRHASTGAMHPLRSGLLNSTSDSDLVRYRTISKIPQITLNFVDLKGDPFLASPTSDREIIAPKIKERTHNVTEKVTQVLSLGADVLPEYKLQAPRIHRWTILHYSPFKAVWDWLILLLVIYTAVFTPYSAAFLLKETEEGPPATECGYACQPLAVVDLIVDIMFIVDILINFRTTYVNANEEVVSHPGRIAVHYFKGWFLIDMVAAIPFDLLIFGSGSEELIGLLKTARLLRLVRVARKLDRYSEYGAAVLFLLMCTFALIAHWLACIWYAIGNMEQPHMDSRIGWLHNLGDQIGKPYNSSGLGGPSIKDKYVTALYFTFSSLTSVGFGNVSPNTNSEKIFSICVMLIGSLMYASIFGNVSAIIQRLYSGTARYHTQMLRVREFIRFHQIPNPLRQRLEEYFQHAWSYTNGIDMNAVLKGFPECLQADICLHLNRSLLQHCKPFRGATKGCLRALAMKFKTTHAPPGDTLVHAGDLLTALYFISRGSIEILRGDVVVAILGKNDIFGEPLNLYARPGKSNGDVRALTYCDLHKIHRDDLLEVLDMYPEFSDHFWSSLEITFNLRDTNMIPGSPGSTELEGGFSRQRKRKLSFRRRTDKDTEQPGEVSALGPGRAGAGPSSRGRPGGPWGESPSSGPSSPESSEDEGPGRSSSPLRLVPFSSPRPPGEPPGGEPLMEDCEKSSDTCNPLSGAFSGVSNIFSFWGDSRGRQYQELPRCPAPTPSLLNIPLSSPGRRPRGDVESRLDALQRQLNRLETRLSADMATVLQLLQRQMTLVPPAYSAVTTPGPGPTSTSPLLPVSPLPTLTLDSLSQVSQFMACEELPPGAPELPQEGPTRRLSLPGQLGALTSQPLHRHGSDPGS

[6] = In vitro metabolic stability, human liver microsomes; conditions: 1 μM
[7] = In vivo pharmacokinetic study, single oral dose in mice, plasma and liver
[8] = system: P. falciparum Dd2; assay: 72 h SYBR Green I drug susceptibility, parental Dd2; type: cell-based; conditions: Plasmodium falciparum, DD2, 72 h, read-out: Dd2 IC50
[9] = read-out: blood stage IC50 vs P. falciparum Dd2, Dd2: MDR strain with Old World genetic background
[10] = liver, single oral dose of 80 mg/kg, mice
[11] = plasma, single oral dose of 80 mg/kg, mice
[12] = Plasmodium falciparum, DD2, read-out: blood stage IC50 vs P. falciparum Dd2
[13] = male, ICR, mouse, liver, po, 80 mg/kg

Compound: 1,2-Dichloro-6-(3-(dibutylamino)propoxy)acridin-9(10H)-one [compound 75]
- IC50 [1, 9]: 0.041 nM
- IC50 [2]: 228 nM
- IC50 ([3]; read-out: cytotoxicity IC50 vs HepG2, human hepatocarcinoma HepG2 cells): 54500 nM
- cure in murine P. yoelii model [4]: curative
- hERG activity (% inhibition at 10 uM) [5]: 57%
- metabolic stability vs microsomes t1/2, human [6]: 0.2 h
- AUCinf [7, 10]: 169389 ng·h/mL
- AUClast [7, 10]: 167981 ng·h/mL
- CL/F [7, 10]: 8.95 mL/min/kg
- Cmax [7, 10]: 21269 ng/mL
- MRT b [7, 10]: 10.08 h
- Tmax [7, 10]: 2.75 h
- Vz/F [7, 10]: 3.605 L/kg
- t1/2 [7, 10]: 4.63 h
- AUCinf [7, 11]: 3239 ng·h/mL
- AUClast [7, 11]: 3049 ng·h/mL
- CL/F [7, 11]: 431.32 mL/min/kg
- Cmax [7, 11]: 226 ng/mL
- MRT b [7, 11]: 6.96 h
- Tmax [7, 11]: 2.75 h
- Vz/F [7, 11]: 223.865 L/kg
- t1/2 [7, 11]: 6.00 h

Compound: 1,4-Dichloro-6-(3-(diethylamino)propoxy)acridin-9(10H)-one [compound 100]
- IC50 [1, 9]: 1300 nM
- IC50 [2]: > 2500 nM
- IC50 [3]: 77000 nM
- selectivity index (SI) (D6) ([3]; SI = IC50 (cytotoxicity)/IC50 (D6)): 152

- Vd/F ([7]; male, ICR, mouse, in vivo, po, 80 mg/kg): 4.42 L/kg
Compound: COc1cc(NC(C)CCCN)c2ncccc2c1 (stereo not shown) [Primaquine, reference compound]

Compound: CCN(CC)CCOc1ccc2c(=O)c3ccc(Cl)cc3[nH]c2c1 [compound 7, 3-chloro-6-(2-(diethylamino)ethoxy)acridin-9(10H)-one]
- IC50 [1, 12]: 41 nM

Compound: CCN(CC)CCOc1ccc2c(=O)c3c(F)cc(F)cc3[nH]c2c1 [compound 46, 6-(2-(Diethylamino)ethoxy)-1,3-difluoroacridin-9(10H)-one]
- IC50 [1, 12]: 16 nM

- CL/F [7, 13]: 15.5 mL/min/kg
- Vd/F [7, 13]: 14 L/kg
- CL/F [7, 11]: 407.77 mL/min/kg
Compound: CCCN(CCC)CCOc1ccc2c(=O)c3c(F)cc(F)cc3[nH]c2c1 [compound 48, 6-(2-(Dipropylamino)ethoxy)-1,3-difluoroacridin-9(10H)-one]
- cure in murine P. yoelii model [4]: curative

- CL/F [7, 13]: 5.8 mL/min/kg
- Vd/F [7, 13]: 3.48 L/kg
Compound: CCCN(CCC)CCCOc1ccc2c(=O)c3c(F)cc(F)cc3[nH]c2c1 [compound 52, 6-(3-(Dipropylamino)propoxy)-1,3-difluoroacridin-9(10H)-one]

Compound: O=c1c2ccc(OCCCCl)cc2[nH]c2ccc(Cl)c(Cl)c12 [compound 71, 1,2-Dichloro-6-(3-chloropropoxy)acridin-9(10H)-one]
- IC50 [1, 12]: 17 nM

Compound: CCN(CC)CCOc1ccc2c(=O)c3c(Cl)c(Cl)ccc3[nH]c2c1 [compound 73, 1,2-Dichloro-6-(2-(diethylamino)ethoxy)acridin-9(10H)-one]
- IC50 [1, 12]: 12 nM
- IC50 [8]: 40 ± 5.5 nM

Compound: CCCN(CCC)CCOc1ccc2c(=O)c3c(Cl)c(Cl)ccc3[nH]c2c1 [compound 74, 1,2-Dichloro-6-(2-(dipropylamino)ethoxy)acridin-9(10H)-one]
- IC50 [1, 12]: 0.05 nM
- cure in murine P. yoelii model [4]: curative
- CL/F [7, 13]: 2.45 mL/min/kg
- Vd/F [7, 13]: 0.392 L/kg

Compound: CN1CCCC1CCOc1ccc2c(=O)c3c(Cl)c(Cl)ccc3[nH]c2c1 (stereo not shown) [compound 76, 1,2-Dichloro-6-(2-(1-methylpyrrolidin-2-yl)ethoxy)acridin-9(10H)-one]
- IC50 [1, 12]: 172 nM

Compound: CC(C)(C)NCCOc1ccc2c(=O)c3c(Cl)c(Cl)ccc3[nH]c2c1 [compound 78, 6-(2-(tert-Butylamino)ethoxy)-1,2-dichloroacridin-9(10H)-one]
- IC50 [1, 12]: 679 nM

Compound: O=c1c2ccc(OCCNC34CC5CC(CC(C5)C3)C4)cc2[nH]c2ccc(Cl)c(Cl)c12 [compound 81, 6-(2-((Adamantan-1-yl)amino)ethoxy)-1,2-dichloroacridin-9(10H)-one]
- IC50 [1, 12]: 77 nM

Compound: CCN(CC)CCOc1ccc2[nH]c3cc(Cl)ccc3c(=O)c2c1 [compound 128, 6-chloro-2-(2-(diethylamino)ethoxy)acridin-9(10H)-one]
- IC50 [1, 12]: 132 nM
